# Reference: patent publication US11098052B2, “4-azapodophylotoxins compounds” (Arizona Board of Regents on behalf of Arizona State …, priority 2016, dated 2021)
# Assays:
# [1] = system: P388 murine lymphocytic leukemia cell line; assay: Murine P388 lymphocytic leukemia inhibitory activity; format: cell-based; settings: Mus musculus, P388, read-out: Murine P388 Lymphocytic Leukemia Inhibitory Activity (ED50)
# BXPC-3 (pancreas) = assay: Human cancer cell growth inhibition, sulforhodamine B assay, BXPC-3; format: cell-based; settings: BXPC-3, 48 h, read-out: Growth Inhibition of Human Cancer Cell Lines (GI50), BXPC-3
# Experimental: (§1) Cancer Cell Line Procedures. The human cancer cell growth inhibition data were determined using the standard sulforhodamine B assay of the US National Cancer Institute as previously described.^35 In short, cells in a 5% fetal bovine serum/RPMI1640 medium were inoculated in 96-well plates and incubated for 24 h. Next, serial dilutions of the samples were added. After 48 h, the plates were fixed with trichloroacetic acid, stained with sulforhodamine B, and read with an automated microplate reader. A growth inhibition of 50% (GI50 or the drug concentration causing a 50% reduction in the net protein increase) was determined from optical density data employing Immunosoft® software.
# MCF-7 (breast) = assay: Human cancer cell growth inhibition, sulforhodamine B assay, MCF-7; format: cell-based; settings: MCF7, 48 h, read-out: Growth Inhibition of Human Cancer Cell Lines (GI50), MCF-7
# Experimental: as §1
# SF-268 (CNS) = assay: Human cancer cell growth inhibition, sulforhodamine B assay, SF-268; format: cell-based; settings: SF-268, 48 h, read-out: Growth Inhibition of Human Cancer Cell Lines (GI50), SF-268
# Experimental: as §1
# NCI-H460 (lung) = assay: Human cancer cell growth inhibition, sulforhodamine B assay, NCI-H460; format: cell-based; settings: NCI-H460, 48 h, read-out: Growth Inhibition of Human Cancer Cell Lines (GI50), NCI-H460
# Experimental: as §1
# DU-145 (prostate) = assay: Human cancer cell growth inhibition, sulforhodamine B assay, DU-145; format: cell-based; settings: DU-145, 48 h, read-out: Growth Inhibition of Human Cancer Cell Lines (GI50), DU-145
# Experimental: as §1
# KM20L2 (colon) = assay: Human cancer cell growth inhibition, sulforhodamine B assay, KM20L2; format: cell-based; settings: KM-20L2, 48 h, read-out: Growth Inhibition of Human Cancer Cell Lines (GI50), KM20L2
# Experimental: as §1
Structure (SMILES),IC50 [1] [µg/mL],GI50 (BXPC-3 (pancreas)) [µg/mL],GI50 (MCF-7 (breast)) [µg/mL],GI50 (SF-268 (CNS)) [µg/mL],GI50 (NCI-H460 (lung)) [µg/mL],GI50 (DU-145 (prostate)) [µg/mL],melting point [°C],GI50 (KM20L2 (colon)) [µg/mL]
"COc1cc(C2C3=C(COC3=O)N(CCc3ccc(F)cc3)c3cc4c(cc32)OCO4)cc(OC)c1O (centres unmarked) [Compound 31, 6,7-Methylenedioxy-4-[2-(4-fluorophenyl)-ethyl]-9-(4-hydroxy-3,5-dimethoxy-phenyl)-4,9-dihydro-3H-furo[3,4-b]quinolin-1-one]",0.21,1.4,0.34,0.48,0.36,0.38,,
"O=C1OCC2=C1C(c1cccc3c1OCO3)c1cc3c(cc1N2)OCO3 (centres unmarked) [Compound 15d, 6,7-Methylenedioxy-9-(2,3-methylenedioxyphenyl)-4,9-dihydro-3H-furo[3,4-b]quinolin-1-one]",0.17,0.065,0.0039,0.0089,0.021,0.041,324 to 327,
"COc1ccc(C2C3=C(COC3=O)Nc3cc(OC)c(OC)c(OC)c32)cc1O (centres unmarked) [Compound 15c, 6,7,8-Trimethoxy-9-(3-hydroxy-4-methoxyphenyl)-4,9-dihydro-3H-furo[3,4-b]quinolin-1-one]",0.78,6.5,7,7.3,10.1,> 10,,
"COc1cc(C2C3=C(COC3=O)N(C)c3cc4c(cc32)OCO4)cc(OC)c1OC (centres unmarked) [Compound 16, 6,7-Methylenedioxy-4-methyl-9-(3,4,5-trimethoxyphenyl)-4,9-dihydro-3H-furo[3,4-b]quinolin-1-one]",0.027,0.049,0.034,0.029,0.032,0.026,,0.032
"COc1cc(C2C3=C(COC3=O)Nc3cc(OC)c(OC)c(OC)c32)cc(Br)c1OC (centres unmarked) [Compound 15a, 6,7,8-Trimethoxy-9-(3-bromo-4,5-trimethoxyphenyl)-4,9-dihydro-3H-furo[3,4-b]quinolin-1-one]",0.11,0.56,0.12,0.11,0.35,0.42,175 to 177,
"COc1cc(C2C3=C(COC3=O)N(Cc3ccco3)c3cc4c(cc32)OCO4)cc(OC)c1O (centres unmarked) [Compound 32, 6,7-Methylenedioxy-4-(furan-2-ylmethyl)-9-(4-hydroxy-3,5-dimethoxy-phenyl)-4,9-dihydro-3H-furo[3,4-b]quinolin-1-one]",0.89,1,0.054,0.061,0.24,0.39,,
"COc1cc(C2C3=C(COC3=O)Nc3cc(OC)c(OC)c(OC)c32)cc(OC)c1OC (centres unmarked) [Compound 15, 6,7,8-Trimethoxy-9-(3,4,5-trimethoxyphenyl)-4,9-dihydro-3H-furo[3,4-b]quinolin-1-one]",1.3,5.6,1.7,3.6,3.6,3.3,137 to 139,
COc1ccc(C2C3=C(COC3=O)Nc3cc(OC)c(OC)c(OC)c32)cc1O[Si](C)(C)C(C)(C)C (centres unmarked),,,,,,,169 to 171,
